“And” between values parts separate entries of the source, which are not always exact repeats. Equal values may be shown once.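 Grown in 96-well plates, cells were treated for 48 hours with each compound at five concentrations. Insufficient inhibition: endpoint recorded as highest concentration tested. Abbreviation: GI50, concentration required for 50% inhibition of growth. TGI marks complete inhibition of growth.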

This note sets out measurements from PubChem BioAssay (NCI).

Among the test systems are A549 NSCLC; U251 CNS; SN12C renal; UO-31 renal; UACC-62 melanoma; K-562 leukemia; UACC-257 melanoma; DU-145 prostate; BT-549 breast; EKVX NSCLC.
Holding throughout (test): growth of human tumour cells (NCI), 48 h

As to `Cc1cc(Nc2ncnc3ccc(NC4=NC(C)(C)CO4)cc23)ccc1Oc1ccn2ncnc2c1`, the GI50 in the assay on A549 NSCLC was 14.9 µM and > 10 µM; with U251 CNS, 13.4 µM and > 10 µM; in the assay with SN12C renal, 11 µM and > 10 µM; in the assay on UO-31 renal it was 6.29 µM and > 10 µM; in the assay with UACC-62 melanoma, 12.5 µM and > 10 µM; in the assay with K-562 leukemia it was 17.1 µM and > 10 µM. Also, the GI50 in the assay with UACC-257 melanoma is 16.9 µM and > 10 µM; in the assay on DU-145 prostate it was 15.9 µM and > 10 µM; in the assay with BT-549 breast, 14.1 µM and > 10 µM; in the assay with EKVX NSCLC, 5.02 µM. Also, the TGI in the assay on A549 NSCLC was 82.9 µM and > 10 µM; with U251 CNS, 35.7 µM and > 10 µM; with SN12C renal, 65.5 µM and > 10 µM; in the assay with UO-31 renal, 84.4 µM and > 10 µM; in the assay on UACC-62 melanoma, 30.3 µM and > 10 µM; in the assay on K-562 leukemia, above 100 µM. In addition, the TGI was 33.1 µM and > 10 µM in the assay with UACC-257 melanoma; above 100 µM in the assay with DU-145 prostate; 39.5 µM and > 10 µM in the assay on BT-549 breast; above 10 µM in the assay on EKVX NSCLC.
